Reference: patent US8198456B2, “Dihydropyridine derivatives as useful as protein kinase inhibitors” (Bayer Intellectual Property GmbH, priority 2006, dated 2012)
pIC50: −log10 of the molar value.

Molecular target: T1, recombinant human c-MET kinase enzyme domain (Homo sapiens, UniProt P08581)
T1 construct: Recombinant c-Met kinase domain (amino acids 960-1390); His (N); made in house; host or cells: baculovirus expression system (insect cells; SF21 is named only for the alternative format)
Assay: c-MET receptor tyrosine kinase Homogeneous Time Resolved Fluorescence assay (HTRF)
Assay type: biochemical
Conditions: Biological Example 1 and/or Biological Example 2
Summary of the method: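 His-tagged c-Met kinase domain (aa 960-1390, baculovirus) phosphorylated biotinylated poly-Glu-Tyr (37 nM) with 20 μM ATP in HEPES pH 7.4, Mg/Mn, DTT, 1% DMSO, 20 min at ambient temperature, EDTA-stopped. HTRF read (PT66-Eu/streptavidin-XL665, 665/620 nm ratio) after 4 h; IC50 from eight 1:3.16 dilutions.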

T1 sequence (P08581 960-1390): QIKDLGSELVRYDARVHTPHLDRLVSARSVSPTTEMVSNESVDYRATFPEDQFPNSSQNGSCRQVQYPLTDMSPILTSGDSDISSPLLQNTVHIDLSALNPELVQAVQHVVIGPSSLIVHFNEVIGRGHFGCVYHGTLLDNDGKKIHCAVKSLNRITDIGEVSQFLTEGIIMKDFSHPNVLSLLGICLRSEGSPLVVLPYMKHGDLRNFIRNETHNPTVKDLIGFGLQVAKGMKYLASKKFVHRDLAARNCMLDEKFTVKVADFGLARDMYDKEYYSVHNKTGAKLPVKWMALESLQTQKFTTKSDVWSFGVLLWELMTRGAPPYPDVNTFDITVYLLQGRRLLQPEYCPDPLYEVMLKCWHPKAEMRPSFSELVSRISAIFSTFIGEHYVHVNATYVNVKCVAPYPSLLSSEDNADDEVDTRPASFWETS

SMILES | pIC50
COC(=O)c1cccc(C2C(C#N)=C(C)NC(c3ccc([N+](=O)[O-])cc3)=C2C#N)c1 (stereo not drawn) [compound 233, 3-[3,5-dicyano-1,4-dihydro-2-methyl-6-(4-nitrophenyl)-4-pyridinyl]-benzoic acid, methyl ester] | 5.60 to 6.30
COC(=O)c1cccc(C2C(C#N)=C(C)NC(c3ccc(O)cc3)=C2C#N)c1 (stereo not drawn) [compound 234, 3-[3,5-dicyano-1,4-dihydro-2-(4-hydroxyphenyl)-6-methyl-4-pyridinyl]-benzoic acid, methyl ester] | 6.30 to 7.00
COC(=O)c1cccc(C2C(C#N)=C(C)NC(c3cccc(N)c3)=C2C#N)c1 (stereo not drawn) [compound 235, 3-[2-(3-aminophenyl)-3,5-dicyano-1,4-dihydro-6-methyl-4-pyridinyl]-benzoic acid, methyl ester] | 6.30 to 7.00
COC(=O)c1cccc(C2C(C#N)=C(C)NC(c3ccc(N)cc3)=C2C#N)c1 (stereo not drawn) [compound 236, 3-[2-(4-aminophenyl)-3,5-dicyano-1,4-dihydro-6-methyl-4-pyridinyl]-benzoic acid, methyl ester] | 6.30 to 7.00
CNC(=O)c1cccc(C2C(C#N)=C(C)NC(c3ccc(N)cc3)=C2C#N)c1 (stereo not drawn) [compound 238, 3-[2-(4-aminophenyl)-3,5-dicyano-1,4-dihydro-6-methyl-4-pyridinyl]-N-methyl-benzamide] | 5.60 to 6.30
CNC(=O)c1cccc(C2C(C#N)=C(C)NC(c3ccc(O)cc3)=C2C#N)c1 (stereo not drawn) [compound 239, 3-[3,5-dicyano-1,4-dihydro-2-(4-hydroxyphenyl)-6-methyl-4-pyridinyl]-N-methyl-benzamide] | 5.60 to 6.30
CNC(=O)c1cccc(C2C(C#N)=C(C)NC(c3ccccc3)=C2C#N)c1 (stereo not drawn) [compound 240, 3-(3,5-dicyano-1,4-dihydro-2-methyl-6-phenyl-4-pyridinyl)-N-methyl-benzamide] | 5.60 to 6.30
CC1=C(C#N)C(c2cccc(C(=O)NCCCn3ccnc3)c2)C(C#N)=C(c2cccc(N)c2)N1 (stereo not drawn) [compound 246, 3-[2-(3-aminophenyl)-3,5-dicyano-1,4-dihydro-6-methyl-4-pyridinyl]-N-[3-(1H-imidazol-1-yl)propyl]-benzamide] | 6.30 to 7.00
CC1=C(C#N)C(c2ccc3[nH]ncc3c2)C(C#N)=C(c2ccccc2)N1 (stereo not drawn) [compound 249, 1,4-dihydro-4-(1H-indazol-5-yl)-2-methyl-6-phenyl-3,5-pyridinedicarbonitrile] | > 7.00
CC1=C(C#N)C(c2ccc3[nH]ncc3c2)C(C#N)=C(c2cccc([N+](=O)[O-])c2)N1 (stereo not drawn) [compound 250, 1,4-dihydro-4-(1H-indazol-5-yl)-2-methyl-6-(3-nitrophenyl)-3,5-pyridinedicarbonitrile] | > 7.00
CC1=C(C#N)C(c2ccc3[nH]ncc3c2)C(C#N)=C(C2CCCN(C(=O)OCc3ccccc3)C2)N1 (stereo not drawn) [compound 251, 3-[3,5-dicyano-1,4-dihydro-4-(1H-indazol-5-yl)-6-methyl-2-pyridinyl]-1-piperidinecarboxylic acid phenylmethyl ester] | 5.60 to 6.30
CC1=C(C#N)C(c2ccc3[nH]ncc3c2)C(C#N)=C(c2cccc(N)c2)N1 (stereo not drawn) [compound 252, 2-(3-aminophenyl)-1,4-dihydro-4-(1H-indazol-5-yl)-6-methyl-3,5-pyridinedicarbonitrile] | > 7.00
CC(=O)Nc1cccc(C2=C(C#N)C(c3ccc4[nH]ncc4c3)C(C#N)=C(C)N2)c1 (stereo not drawn) [compound 253, N-[3-[3,5-dicyano-1,4-dihydro-4-(1H-indazol-5-yl)-6-methyl-2-pyridinyl]-phenyl]-acetamide] | > 7.00
CC1=C(C#N)C(c2ccc3[nH]ncc3c2)C(C#N)=C(CCN)N1 (stereo not drawn) [compound 255, 2-(2-aminoethyl)-1,4-dihydro-4-(1H-indazol-5-yl)-6-methyl-3,5-pyridinedicarbonitrile] | > 7.00
COC(=O)c1ccc(C2=C(C#N)C(c3ccc4[nH]ncc4c3)C(C#N)=C(C)N2)cc1 (stereo not drawn) [compound 257, 4-[3,5-dicyano-1,4-dihydro-4-(1H-indazol-5-yl)-6-methyl-2-pyridinyl]-benzoic acid methyl ester] | > 7.00
CC1=C(C#N)C(c2ccc3[nH]ncc3c2)C(C#N)=C(c2ccc(CO)cc2)N1 (stereo not drawn) [compound 258, 1,4-dihydro-2-[4-(hydroxymethyl)phenyl]-4-(1H-indazol-5-yl)-6-methyl-3,5-pyridinedicarbonitrile] | > 7.00

The remaining lines, values ahead:

pIC50 | SMILES
> 7.00 | CC1=C(C#N)C(c2ccc3[nH]nc(N)c3c2)C(C#N)=C(c2ccccc2)N1 (stereo not drawn) [compound 259, 4-(3-amino-1H-indazol-5-yl)-1,4-dihydro-2-methyl-6-phenyl-3,5-pyridinedicarbonitrile]
> 7.00 | CC1=C(C#N)C(c2ccc3[nH]ncc3c2)C(C#N)=C(c2ccc(C(=O)NCCN3CCOCC3)cc2)N1 (stereo not drawn) [compound 261, 4-[3,5-dicyano-1,4-dihydro-4-(1H-indazol-5-yl)-6-methyl-2-pyridinyl]-N-[2-(4-morpholinyl)ethyl]-benzamide]
> 7.00 | CC1=C(C#N)C(c2ccc3[nH]nc(N)c3c2)C(C#N)=C(c2ccc(Cl)cc2)N1 (stereo not drawn) [compound 264, 4-(3-amino-1H-indazol-5-yl)-2-(4-chlorophenyl)-1,4-dihydro-6-methyl-3,5-pyridinedicarbonitrile]
> 7.00 | CC1=C(C#N)C(c2ccc3[nH]ncc3c2)C(C#N)=C(c2ccncc2)N1 (stereo not drawn) [compound 265, 1,4-dihydro-4-(1H-indazol-5-yl)-6-methyl-[2,4′-bipyridine]-3,5-dicarbonitrile]
> 7.00 | CC1=C(C#N)C(c2ccc3[nH]ncc3c2)C(C#N)=C(c2cccnc2)N1 (stereo not drawn) [compound 266, 1,4-dihydro-4-(1H-indazol-5-yl)-6-methyl-[2,3′-bipyridine]-3,5-dicarbonitrile]
> 7.00 | CC1=C(C#N)C(c2ccc3[nH]ncc3c2)C(C#N)=C(c2ccco2)N1 (stereo not drawn) [compound 267, 2-(2-furanyl)-1,4-dihydro-4-(1H-indazol-5-yl)-6-methyl-3,5-pyridinedicarbonitrile]
> 7.00 | CCOC(=O)C1=C(C#N)C(c2ccc3[nH]ncc3c2)C(C#N)=C(C)N1 (stereo not drawn) [compound 268, 3,5-dicyano-1,4-dihydro-4-(1H-indazol-5-yl)-6-methyl-2-pyridinecarboxylic acid ethyl ester]
> 7.00 | CCC1=C(C#N)C(c2ccc3[nH]ncc3c2)C(C#N)=C(CC)N1 [compound 269, 2,6-diethyl-1,4-dihydro-4-(1H-indazol-5-yl)-3,5-pyridinedicarbonitrile]
> 7.00 | CC1=C(C#N)C(c2ccc3[nH]ncc3c2)C(C#N)=C(c2ccc(N3CCOCC3)nc2)N1 (stereo not drawn) [compound 271, 1,4-dihydro-4-(1H-indazol-5-yl)-6-methyl-6′-(4-morpholinyl)-[2,3′-bipyridine]-3,5-dicarbonitrile]
> 7.00 | CC1=C(C#N)C(c2ccc3[nH]ncc3c2)C(C#N)=C(c2ccc(N3CCOCC3)c(F)c2)N1 (stereo not drawn) [compound 272, 2-[3-fluoro-4-(4-morpholinyl)phenyl]-1,4-dihydro-4-(1H-indazol-5-yl)-6-methyl-3,5-pyridinedicarbonitrile]
> 7.00 | CC1=C(C#N)C(c2ccc3[nH]ncc3c2)C(C#N)=C(c2ccc(N(C)CCO)nc2)N1 (stereo not drawn) [compound 273, 1,4-dihydro-6′-[(2-hydroxyethyl)methylamino]-4-(1H-indazol-5-yl)-6-methyl-[2,3′-bipyridine]-3,5-dicarbonitrile]
